We go through 2 compounds from patent US20090209474A1, “NOVEL USES FOR DRUGS TARGETING GLUTAMINE SYNTHETASE” (NEWTHERA, priority 2005, published 2009).

Test [1] deals with GS. As to conditions: literature (Meister 1985; Eisenberg et al., 2000); cited from earlier work.
Test [2] addresses T1, brain GS (Mus musculus, UniProt P15105). As to conditions: 24 h after single i.p.
Test [3] in a line: Adrenal weight in corticosterone-administered rats. It counts as in vivo, Wistar rats. The conditions noted are these: 21 days, versus PCB.
Test [4] concerns Wistar rats. Put plainly: Open field task in corticosterone-administered rats. Format: in vivo.
The target of the next test is bacterial GS (Mycobacterium tuberculosis, UniProt P9WN39). As to conditions: cited from earlier work.
The test system of test [5] is Wistar rats. Put plainly: Forced swimming test in corticosterone-administered rats. Format: in vivo. As to conditions: day 19, corticosterone 35 mg/kg s.c.; versus PCB and Control.
The test system of test [6] is glucocorticoid receptor (GR). Put plainly: Brain glucocorticoid receptor expression by ELISA in corticosterone-administered rats. It counts as in vivo, Wistar rats.
Another test relates to pathogenic mycobacteria. As to conditions: cited from earlier work.
A further test concerns rat lung GS protein. The conditions noted are these: cited from earlier work.
Test [7] has as its target GS (Rattus norvegicus, UniProt P09606).
The next test deals with CA3 pyramidal neurons. Put plainly: Surface of CA3 pyramidal neurons (Golgi) in corticosterone-administered rats. Format: in vivo, Wistar rats. The conditions noted are these: 21 days.
Test [8] concerns purified sheep brain GS. Put plainly: Purified sheep brain GS activity (Meister's method, gamma-glutamylhydroxamate formation). Format: biochemical. As to conditions: for effect on GS subunit (monomer) activity: in presence of 2β-ME (DTT for tianeptine).
The target in test [9] is T1, brain GS. As to conditions: i.p. 7 days.
Test [10] has as its system GS. As to conditions: rat, in vivo.
Another test concerns M. tuberculosis. As to conditions: MS with isoniazid (INH); cited from earlier work.
The subject of test [11] is purified sheep brain GS. As to conditions: Rueppel et al., 1972; cited from earlier work.
Where [12] appears, read: 21 days, versus PCB and Control.

“Also recorded” adds a separate entry of the source. Where two headings read alike, the source gives them in different places.

T1 sequence (P15105 2-373 limits assumed): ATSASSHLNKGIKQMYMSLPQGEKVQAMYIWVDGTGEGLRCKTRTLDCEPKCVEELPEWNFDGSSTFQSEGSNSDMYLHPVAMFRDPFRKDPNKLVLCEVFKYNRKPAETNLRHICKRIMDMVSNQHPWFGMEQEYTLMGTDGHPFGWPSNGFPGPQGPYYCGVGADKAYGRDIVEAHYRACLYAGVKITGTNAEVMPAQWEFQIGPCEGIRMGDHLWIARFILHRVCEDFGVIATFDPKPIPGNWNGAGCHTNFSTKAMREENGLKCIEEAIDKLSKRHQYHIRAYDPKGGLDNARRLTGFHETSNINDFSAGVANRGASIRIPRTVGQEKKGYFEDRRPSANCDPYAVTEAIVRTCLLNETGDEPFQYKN
Sequence of GS (Rattus norvegicus, UniProt P09606) (P09606 2-373 limits assumed): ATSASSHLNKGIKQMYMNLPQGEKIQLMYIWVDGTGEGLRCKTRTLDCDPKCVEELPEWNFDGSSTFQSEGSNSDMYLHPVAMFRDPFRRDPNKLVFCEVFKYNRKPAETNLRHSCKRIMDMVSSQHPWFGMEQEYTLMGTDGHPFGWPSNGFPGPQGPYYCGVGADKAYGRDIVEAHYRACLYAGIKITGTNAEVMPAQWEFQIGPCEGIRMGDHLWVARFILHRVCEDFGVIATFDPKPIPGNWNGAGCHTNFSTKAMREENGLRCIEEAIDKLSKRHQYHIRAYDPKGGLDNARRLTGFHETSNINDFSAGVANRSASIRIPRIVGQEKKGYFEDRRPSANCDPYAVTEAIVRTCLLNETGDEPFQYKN
Sequence of bacterial GS (P9WN39 whole entry): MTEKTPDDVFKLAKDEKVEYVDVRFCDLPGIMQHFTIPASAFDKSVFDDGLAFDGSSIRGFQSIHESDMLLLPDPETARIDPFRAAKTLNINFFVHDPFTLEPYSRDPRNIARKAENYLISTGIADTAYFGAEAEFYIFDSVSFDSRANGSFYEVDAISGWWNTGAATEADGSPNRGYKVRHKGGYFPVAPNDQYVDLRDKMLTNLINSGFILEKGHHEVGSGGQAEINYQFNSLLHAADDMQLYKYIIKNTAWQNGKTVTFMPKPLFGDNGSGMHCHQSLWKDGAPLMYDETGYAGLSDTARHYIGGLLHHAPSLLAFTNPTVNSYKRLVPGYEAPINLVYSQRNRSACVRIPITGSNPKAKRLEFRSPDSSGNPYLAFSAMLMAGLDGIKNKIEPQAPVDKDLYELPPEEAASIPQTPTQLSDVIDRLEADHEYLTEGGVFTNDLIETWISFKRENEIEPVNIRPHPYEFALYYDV

Take `CS(=N)(=O)CC[C@H](N)C(=O)O` (stereo partly shown) [MS, 2-amino-4-(S-methylsulfonimidosyl)butanoic acid]: the “nature of the binding to GS” value in the test with GS [1] is listed as “non-selective, irreversible GS ligand; also recorded: bind GS irreversibly”. For the same compound, the “dose relation of effects on GS activity and GS expression” value at brain GS [2] and at brain GS [9] was “dose-dependent” in each case. The “dose with the highest GS activity” value at brain GS [2] came out at 0.312 mg/kg. Moreover, the “whole brain GS activity” value is recorded as “increase GS activity” on brain GS [2] (0.078-20 mg/kg) and “decreased GS activity proportionally the dose” on brain GS [9] (MS 0.5, 15, 45 mg/kg). Besides, the adrenal weight entry in [3] is on record as “higher”. The “dose relation of the increase in resting time” value with Wistar rats [4] (day 15) is reported as “proportional to the dose”. In addition, in the test on Wistar rats [4] (day 15, corticosterone 35 mg/kg s.c., versus PCB and Control), the “resting time in the open field task” value is “higher”. Also, the “greater sensitivity to MS of bacterial GS than of mammalian GS” value at bacterial GS is recorded as 100 fold. For the same compound, the “immobility in the forced swimming test” value with Wistar rats [5] is reported as “comparable or lower”. The “brain GR expression” value in test [6] (GF 0.1 and 3 mg/kg, MS 0.5, 15 and 45 mg/kg, tianeptine 0.5 mg/kg, versus PCB) was “higher”. Also, the “dose relation of the increase in GR expression” value in test [6] (rat, in vivo) was “proportional to the dose”. Further, the “effect on mycobacterium growth” value in the test on pathogenic mycobacteria is listed as “block the growth”. The “augmentation of rat lung GS protein levels” value is listed as 4 fold in the test on rat lung GS protein (MS 100 mg/kg); 12 fold in the test on rat lung GS protein (combination MS 100 mg/kg and dexamethasone 0.5 mg/kg). The “lung GS activity” value at GS [7] (21 days, most rats, versus PCB) was “decrease in lung GS activity”. Further, the “brain GS activity” value on GS [7] (setting [12]) is reported as “dose-dependent decrease”; on GS [7] (MS at the and 45 mg/kg doses), “lowest GS activities”. Also, the “liver GS activity” value on GS [7] (setting [12]) was “clear decrease”. Besides, in the test on CA3 pyramidal neurons, the “dose with the best protective effects on CA3 pyramidal neurons” value was found to be 15 mg/kg. Moreover, the type of competition result in the test with purified sheep brain GS [8] was “competitive with L-glutamine”. The “effect on GS subunit (monomer) activity” value with purified sheep brain GS [8] is given as “inhibit GS activity at “high” concentrations”. For the same compound, the “brain GS expression” value in the test on GS [10] is reported as “higher”. The “reduction of CFU in guinea pig organs below the level attained with INH alone” value with M. tuberculosis is listed as approximately 1.5 log units.

Take `CC(C)NNC(=O)c1ccncc1` [iproniazid, Iproniazid]: the type of competition entry with purified sheep brain GS [11] is reported as “competes with hydroxylamine on the NH4 site”. In the test with purified sheep brain GS [8], the “tested on GS activity: ligand or not” value was “GS ligands” and the “effect on GS subunit (monomer) activity” value is “inhibit GS activity at “high” concentrations”.
